From ChEMBL document CHEMBL3244276, “Hydrogen-bonding parameter and its significance in quantitative structure--activity studies” (J Med Chem, 1977)

Assays:
physchem [1] = details: octanol/water
physchem [2] = assay: physchem
[3] = octanol/water
[4] = octanol/water; remark: listed apart in the source
[5] = octanol/water; remark: listed apart in the source
[6] = octanol/water; remark: listed apart in the source
[7] = octanol/water; remark: listed apart in the source

SMILES	logP (physchem [1])	also measured
Oc1cccc(I)c1	2.93	
CC1OC(C)OC(C)O1 (stereo not drawn)		logP (physchem [2]; oil/water): 0.28
COc1cccc(OCC(=O)O)c1	1.38	
CC(=O)c1ccc(S(N)(=O)=O)cc1	0.2	
Cc1cccc(S(N)(=O)=O)c1	0.85	
O=C(O)COc1ccccc1	1.26	
CNc1ccc(S(N)(=O)=O)cc1	0.08	
COc1ccc(S(N)(=O)=O)cc1	0.47	
N#Cc1ccc(S(N)(=O)=O)cc1	0.23	
NS(=O)(=O)c1ccc(Br)cc1	1.36	
NS(=O)(=O)c1ccc([N+](=O)[O-])c(C(F)(F)F)c1	1.73	
Oc1cccc(Br)c1	2.63	
CNC(=O)Oc1cccc(C(C)C)c1	2.63	
O=C(O)COc1cccc(C(=O)O)c1	1.11	
CC(O)C(C)O (stereo not drawn)		logP (physchem [2]; oil/water): -2.47
NS(=O)(=O)c1ccc([N+](=O)[O-])cc1	0.64	
O=C(O)COc1ccc(O)cc1	0.65	
O=C(O)COc1cccc(Cl)c1	2.02	
CC(=O)Nc1cccc(OCC(=O)O)c1	0.47	
O=C(O)COc1cccc([N+](=O)[O-])c1	1.37	
O=C(O)COc1cccc(C(F)(F)F)c1	2.33	
CCOc1ccccc1OC(=O)NC	1.24	
CNC(=O)Oc1ccccc1C#N	0.86	
COP(=O)(OC)Oc1ccccc1	1.22	pKHB: 2.21
CNC(=O)Oc1ccccc1I	1.96	

SMILES	logP (physchem [1])	also measured
CNC(=O)Oc1ccccc1OC	0.81	
CNC(=O)Oc1ccccc1[N+](=O)[O-]	1.02	
CNC(=O)Oc1cccc(Cl)c1	2.03	
CNC(=O)Oc1cccc(Br)c1	2.25	
CNC(=O)Oc1cccc(OC)c1	1.3	
CNC(=O)Oc1cccc(N(C)C)c1	1.43	
CNC(=O)Oc1cccc(C=O)c1	0.92	
CNC(=O)Oc1cccc(C(C)=O)c1	0.9	
CNC(=O)Oc1cccc(C#N)c1	0.98	
CNC(=O)Oc1cccc([N+](=O)[O-])c1	1.39	
CNC(=O)Oc1ccc(C(C)C)cc1	2.8	
CNC(=O)Oc1ccc(I)cc1	2.46	
CCOc1ccc(OC(=O)NC)cc1	1.64	
CNC(=O)Oc1ccc(C=O)cc1	0.99	
CNC(=O)Oc1ccc(C(C)=O)cc1	1.01	
O=C(O)COc1ccc(F)cc1	1.41	
Cc1ccc(OCC(=O)O)cc1	1.78	
CS(=O)(=O)c1cccc(OCC(=O)O)c1	0	
CCc1cccc(OCC(=O)O)c1	2.23	
NS(=O)(=O)c1cccc([N+](=O)[O-])c1	0.55	
NS(=O)(=O)c1cccc(Cl)c1	1.29	
CN(C)c1ccccc1		pKHB: 0.45; logP [3]: 2.38
CN(C)C(=O)c1ccccc1	0.62	pKHB: 2.22
CN(C)Cc1ccccc1	1.98	pKHB: 1.56; logP [3]: 1.44
CCOC(N)=O		logP (physchem [2]; oil/water): -1.13

SMILES	logP (physchem [1])	also measured
CC(=O)N(C)c1ccccc1	1.12	pKHB: 2; logP [3]: -0.4
Oc1ccc(I)cc1	2.91	
Oc1cccc(F)c1	1.93	
C[C@H](O)CCO [1,3-BUTANEDIOL]		logP (physchem [2]; oil/water): -2.37
OCCCCO [1,4-BUTANEDIOL]		logP (physchem [2]; octanol/water): -2.68; logP [4]: -1.72
OCCCCCCO [1,6-HEXANEDIOL]		logP (physchem [2]; oil/water): -2.17
CCCCCO [1-PENTANOL]		logP [5]: 0.36
COc1cccc(O)c1 [1-hydroxy-3-methoxybenzene]	1.58	
CNC(=O)Oc1ccc(C#N)cc1 [4-CYANOPHENYL METHYLCARBAMATE]	0.95	
CNC(=O)Oc1ccc([N+](=O)[O-])cc1 [4-NITROPHENYL METHYLCARBAMATE]	1.46	
CC(C)=O [ACETONE]		logP (physchem [2]; oil/water): -0.7
CC(=O)c1ccccc1 [ACETOPHENONE]		pKHB: 1.13; logP [3]: 1.14
Nc1ccccc1 [ANILINE]		logP [3]: -0.05
COc1ccccc1 [ANISOLE]		pKHB: 0.02
O=Cc1ccccc1 [BENZALDEHYDE]		pKHB: 0.8; logP [3]: 1.11
NS(=O)(=O)c1ccccc1 [BENZENESULFONAMIDE]	0.31	
N#Cc1ccccc1 [BENZONITRILE]	1.56	pKHB: 0.79; logP [3]: 0.96
OCc1ccccc1 [BENZYL ALCOHOL]		logP [3]: -0.76
NCc1ccccc1 [BENZYLAMINE]		logP [3]: -0.15
Brc1ccccc1 [BROMOBENZENE]		pKHB: -0.84; logP [3]: 3.08
CCCC(N)=O [BUTYRAMIDE]		logP (physchem [2]; oil/water): -2.02
Clc1ccccc1 [CHLOROBENZENE]		pKHB: -0.8; logP [3]: 2.98
CCOCC [ETHER]		logP (physchem [2]; oil/water): 0.38
CCOC(C)=O [ETHYL ACETATE]		logP (physchem [2]; oil/water): 0.4
CCc1ccccc1 [ETHYLBENZENE]		pKHB: -0.34

SMILES	logP (physchem [1])	also measured
OCCO [ETHYLENE GLYCOL]		logP (physchem [2]; octanol/water): -3.31; logP [4]: -2.28
CCCCCC(=O)O [HEXANOATE]		logP [5]: 0.83
CC(C)CC(N)=O [ISOVALERAMIDE]		logP (physchem [2]; oil/water): -1.64
COc1ccc(O)cc1 [MEQUINOL]	1.34	
Cc1cccc(O)c1 [METACRESOL]	2.02	
C1N2CN3CN1CN(C2)C3 [METHENAMINE]		logP (physchem [2]; oil/water): -3.68
COC(N)=O [METHYL CARBAMATE]		logP (physchem [2]; oil/water): -1.6
CS(=O)(=O)c1ccccc1 [METHYLPHENYLSULFONE]	0.47	pKHB: 1.05
CNC(=O)Oc1cccc(C)c1 [METOLCARB]	1.7	
O=[N+]([O-])c1ccccc1 [NITROBENZENE]		logP [6]: 2.93; logP [3]: 1.49
NS(=O)(=O)c1ccc(Cl)cc1 [P-CHLOROBENZENESULFONAMIDE]	0.84	
Cc1ccc(S(N)(=O)=O)cc1 [P-TOLUENESULFONAMIDE]	0.82	
CCOc1ccccc1 [PHENETOLE]	2.51	pKHB: 0.22
Oc1ccccc1 [PHENOL]		logP [7]: 1.3; logP [6]: 0.36; logP [3]: -0.89
O=C(O)Cc1ccccc1 [PHENYLACETIC ACID]	1.41	
CCC(N)=O [PROPIONAMIDE]		logP (physchem [2]; oil/water): -2.44
CCC(=O)O [PROPIONIC ACID]		logP [5]: -0.8
CNC(=O)Oc1ccccc1OC(C)C [PROPOXUR]	1.52	
CC(O)CO (stereo not drawn) [PROPYLENE GLYCOL]		logP (physchem [2]; oil/water): -2.77
O=C1CCC(=O)N1 [SUCCINIMIDE]		logP (physchem [2]; oil/water): -2.31
Cc1ccccc1 [TOLUENE]		pKHB: -0.29
CC(=O)OCC(COC(C)=O)OC(C)=O [TRIACETIN]		logP (physchem [2]; oil/water): -0.36
CCCCC(=O)O [VALERIC ACID]		logP (physchem [2]; oil/water): 0.48
